Test results from article PMC8812461, “Synthesis of New 3-Arylcoumarins Bearing N-Benzyl Triazole Moiety: Dual Lipoxygenase and Butyrylcholinesterase Inhibitors With Anti-Amyloid Aggregation and Neuroprotective Properties Against Alzheimer’s Disease” (Frontiers in Chemistry, 2022).
Where two headings read alike, the source gives them in different places.

What was measured:
[1] = molecular target: T1, BuChE (from equine serum) (Equus caballus, UniProt P81908); assay: biochemical; type: biochemical; settings: for IC50: mean ± SEM of three experiments, read-out: eq BuChE IC50; for eq BuChE %inhib.: test concentration not given
T1 construct: BuChE from equine serum was employed for Ellman’s assay; purchased Merck or Aldrich; host or cells: equine serum
T1 sequence (P81908 whole entry): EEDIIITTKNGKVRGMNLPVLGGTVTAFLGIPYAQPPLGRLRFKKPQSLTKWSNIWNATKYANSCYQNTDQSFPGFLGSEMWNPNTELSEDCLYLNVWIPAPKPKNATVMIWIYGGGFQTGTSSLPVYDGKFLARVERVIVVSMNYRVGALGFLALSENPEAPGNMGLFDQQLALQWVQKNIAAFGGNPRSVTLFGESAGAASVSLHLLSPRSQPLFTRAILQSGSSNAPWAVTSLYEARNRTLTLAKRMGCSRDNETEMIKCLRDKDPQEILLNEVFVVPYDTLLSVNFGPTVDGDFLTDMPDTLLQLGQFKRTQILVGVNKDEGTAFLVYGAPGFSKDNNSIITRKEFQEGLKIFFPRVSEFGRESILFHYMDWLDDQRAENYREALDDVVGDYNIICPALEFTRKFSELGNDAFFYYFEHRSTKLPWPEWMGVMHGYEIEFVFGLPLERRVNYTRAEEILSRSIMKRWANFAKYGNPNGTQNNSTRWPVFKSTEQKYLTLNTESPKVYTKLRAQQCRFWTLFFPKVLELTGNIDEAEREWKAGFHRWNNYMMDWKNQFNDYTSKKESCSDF
Experimental: (§1) AChE from electrophorus electricus and BuChE from equine serum was employed for Ellman’s assay. Each compound (5.0 mg) was dissolved in 1.0 ml of DMSO. […] Briefly, a mixture of phosphate buffer (2.0 ml, 0.1 M, pH = 8.0), 60.0 µl of DTNB solution, and 20.0 µl of AChE/BuChE was prepared, and 30.0 µl of the test compounds in different concentrations were then added to the mixture. Next, a solution of the substrate (acetylthiocholine iodide/butyrylthiocholine iodide, 20.0 µl) was added to the mixture after 10 min incubation at 25°C. All experiments were performed in triplicates, and the temperature of all solutions was controlled to be maintained at 25°C. […] The blank solution was used to validate the non-enzymatic hydrolysis of the substrate during the assessment. The blank solution was prepared by a mixture of 2.0 ml of buffer, 30.0 μl of DMSO, 60.0 μl of DTNB, and 20.0 μl of substrate. The rate of the enzymatic hydrolysis of the substrate was calculated, and % inhibition of the compounds was determined. The half maximal inhibitory concentration (IC50) values were graphically determined from inhibition curves (logarithm of the concentration of the tested compound versus percent of the inhibition).

[2] = molecular target: T2, AChE (from electrophorus electricus) (Electrophorus electricus, UniProt O42275); assay: Cholinesterase inhibition assay (Ellman's method), AChE; type: biochemical; settings: test concentration not given
T2 construct: purchased Merck or Aldrich
T2 sequence (O42275 24-633): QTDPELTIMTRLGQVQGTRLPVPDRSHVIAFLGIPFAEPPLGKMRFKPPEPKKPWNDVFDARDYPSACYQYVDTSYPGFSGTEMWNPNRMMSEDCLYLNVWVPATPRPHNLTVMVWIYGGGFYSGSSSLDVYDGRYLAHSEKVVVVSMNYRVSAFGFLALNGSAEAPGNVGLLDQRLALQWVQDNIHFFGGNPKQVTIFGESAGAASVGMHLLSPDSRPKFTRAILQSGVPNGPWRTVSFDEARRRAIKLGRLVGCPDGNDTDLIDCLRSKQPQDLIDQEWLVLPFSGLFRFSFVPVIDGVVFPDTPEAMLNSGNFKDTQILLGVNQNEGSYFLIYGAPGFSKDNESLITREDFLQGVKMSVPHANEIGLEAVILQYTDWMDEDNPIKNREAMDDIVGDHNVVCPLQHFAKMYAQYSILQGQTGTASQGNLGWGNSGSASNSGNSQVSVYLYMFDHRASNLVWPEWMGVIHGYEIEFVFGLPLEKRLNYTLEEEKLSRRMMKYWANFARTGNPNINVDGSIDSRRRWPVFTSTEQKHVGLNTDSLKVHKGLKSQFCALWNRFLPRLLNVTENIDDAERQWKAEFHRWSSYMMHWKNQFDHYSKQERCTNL
Experimental: as §1

[3] = molecular target: T3, 15-LOX (soybean lipoxygenase) (Glycine max, UniProt P08170); assay: Soybean 15-LOX inhibition assay; type: biochemical
T3 construct: purchased Merck or Aldrich
T3 sequence (P08170 1-839): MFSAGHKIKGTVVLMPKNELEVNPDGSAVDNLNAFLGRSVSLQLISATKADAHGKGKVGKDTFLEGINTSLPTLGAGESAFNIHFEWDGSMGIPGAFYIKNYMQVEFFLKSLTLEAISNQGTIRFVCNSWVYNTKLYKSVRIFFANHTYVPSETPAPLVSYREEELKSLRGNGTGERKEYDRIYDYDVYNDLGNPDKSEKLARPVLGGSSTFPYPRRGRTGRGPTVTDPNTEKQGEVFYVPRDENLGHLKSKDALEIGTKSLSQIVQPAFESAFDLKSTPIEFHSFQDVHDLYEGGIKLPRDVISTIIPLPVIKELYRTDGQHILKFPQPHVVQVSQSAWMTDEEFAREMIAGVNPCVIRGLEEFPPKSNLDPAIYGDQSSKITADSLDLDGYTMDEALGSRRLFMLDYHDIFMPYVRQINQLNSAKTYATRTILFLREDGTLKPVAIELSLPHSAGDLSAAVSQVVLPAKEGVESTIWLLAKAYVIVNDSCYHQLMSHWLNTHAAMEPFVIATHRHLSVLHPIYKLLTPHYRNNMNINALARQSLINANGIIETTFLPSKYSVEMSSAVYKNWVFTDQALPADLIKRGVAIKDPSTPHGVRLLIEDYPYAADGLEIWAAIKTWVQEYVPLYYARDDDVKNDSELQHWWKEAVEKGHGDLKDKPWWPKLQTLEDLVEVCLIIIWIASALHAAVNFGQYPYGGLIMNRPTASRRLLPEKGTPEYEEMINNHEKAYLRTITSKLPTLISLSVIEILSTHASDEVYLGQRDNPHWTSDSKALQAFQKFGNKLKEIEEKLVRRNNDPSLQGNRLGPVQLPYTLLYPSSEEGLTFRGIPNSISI
Experimental: A solution of the target compound was prepared in DMSO, and it was diluted with phosphate buffer (0.1 M, pH = 8.0).

Aβ1-42 = molecular target: T4, Aβ1-42 (Homo sapiens, UniProt P05067); assay: Self-induced Aβ1-42 aggregation (ThT assay); type: biochemical; settings: Aβ1-42 10.0 μM, compound 100.0 μM, ThT
T4 construct: was used to dissolve amyloid β1-40 (Sigma A1075); purchased Sigma A1075
T4 sequence (P05067 672-711): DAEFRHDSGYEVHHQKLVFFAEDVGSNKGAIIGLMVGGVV

in vitro = type: cell-based; settings: MTT, read-out: PC12 viability percent (cytotoxicity)
Experimental: The cytotoxic effect of the selected compounds (8l and 8n) on the PC12 cell line was evaluated by using the MTT-based colorimetric assay. First, the PC12 cell line was cultivated in DMEM culture medium, supplemented with fetal bovine serum (10%). […]. Thereafter, the culture medium of each well was replaced by 20 µl MTT solution (5.0 mg/ml) and incubated to form formazan crystals, followed by dissolving them in DMSO (100.0 µl) and recording the related absorbance at 570 nm using a Synergy 2 multimode plate reader (Biotek, Winooski, VT, United States). The viability percent was then calculated according to the control well, where no compound was added to the related well. The mentioned protocol was repeated in triplicates, and the mean ± SEM of the obtained results was reported.

[4] = soybean lipoxygenase, linoleic acid substrate, read-out: 15-LOX IC50

Compound	IC50 [1]	ee AChE %inhib. [2]	IC50 [3]	eq BuChE %inhib. [1]	IC50 [3, 4]	Inhibition of self-induced Aβ1-42 aggregation (Aβ1-42)	viability at 24 h, 50 µM (in vitro)
O=c1oc2ccccc2cc1-c1ccc(OCc2cn(Cc3ccccc3)nn2)cc1 [8a, 3-(4-((1-Benzyl-1H-1,2,3-triazol-4-yl)methoxy)phenyl)-2H-chromen-2-one]	27.6 ± 1.3 µM	23.6%	36.2 ± 1.5 µM	–	–	–	–
O=c1oc2ccccc2cc1-c1ccc(OCc2cn(Cc3ccccc3F)nn2)cc1 [8b, 3-(4-((1-(2-Fluorobenzyl)-1H-1,2,3-triazol-4-yl)methoxy)phenyl)-2H-chromen-2-one]	36.5 ± 1.1 µM	11.2%	16.5 ± 0.7 µM	–	–	–	–
O=c1oc2ccccc2cc1-c1ccc(OCc2cn(Cc3cccc(F)c3)nn2)cc1 [8c, 3-(4-((1-(3-Fluorobenzyl)-1H-1,2,3-triazol-4-yl)methoxy)phenyl)-2H-chromen-2-one]	–	15.3%	28.3 ± 1.4 µM	48.9%	–	–	–
O=c1oc2ccccc2cc1-c1ccc(OCc2cn(Cc3ccc(F)cc3)nn2)cc1 [8d, 3-(4-((1-(4-Fluorobenzyl)-1H-1,2,3-triazol-4-yl)methoxy)phenyl)-2H-chromen-2-one]	–	32.4%	45.2 ± 1.5 µM	12.7%	–	–	–
O=c1oc2ccccc2cc1-c1ccc(OCc2cn(Cc3ccccc3Cl)nn2)cc1 [8e, 3-(4-((1-(2-Chlorobenzyl)-1H-1,2,3-triazol-4-yl)methoxy)phenyl)-2H-chromen-2-one]	–	37.3%	–	–	> 100 µM	–	–
O=c1oc2ccccc2cc1-c1ccc(OCc2cn(Cc3ccc(Cl)cc3)nn2)cc1 [8f, 3-(4-((1-(4-Chlorobenzyl)-1H-1,2,3-triazol-4-yl)methoxy)phenyl)-2H-chromen-2-one]	–	41.4%	–	23.6%	> 100 µM	–	–
O=c1oc2ccccc2cc1-c1ccc(OCc2cn(Cc3ccc(Br)cc3)nn2)cc1 [8g, 3-(4-((1-(4-Bromobenzyl)-1H-1,2,3-triazol-4-yl)methoxy)phenyl)-2H-chromen-2-one]	–	35.5%	–	46.7%	> 100 µM	–	–
O=c1oc2ccccc2cc1-c1ccc(OCc2cn(Cc3ccccc3[N+](=O)[O-])nn2)cc1 [8h, 3-(4-((1-(2-Nitrobenzyl)-1H-1,2,3-triazol-4-yl)methoxy)phenyl)-2H-chromen-2-one]	–	20.8%	–	–	> 100 µM	–	–
O=c1oc2ccccc2cc1-c1ccc(OCc2cn(Cc3cccc([N+](=O)[O-])c3)nn2)cc1 [8i, 3-(4-((1-(3-Nitrobenzyl)-1H-1,2,3-triazol-4-yl)methoxy)phenyl)-2H-chromen-2-one]	–	49.9%	–	–	> 100 µM	–	–
O=c1oc2ccccc2cc1-c1ccc(OCc2cn(Cc3ccc([N+](=O)[O-])cc3)nn2)cc1 [8j, 3-(4-((1-(4-Nitrobenzyl)-1H-1,2,3-triazol-4-yl)methoxy)phenyl)-2H-chromen-2-one]	–	14.7%	–	–	> 100 µM	–	–
Cc1cccc(Cn2cc(COc3ccc(-c4cc5ccccc5oc4=O)cc3)nn2)c1 [8k, 3-(4-((1-(3-Methylbenzyl)-1H-1,2,3-triazol-4-yl)methoxy)phenyl)-2H-chromen-2-one]	–	27.4%	–	37.1%	53.5 ± 1.5 µM	–	–
COc1ccc(Cn2cc(COc3ccc(-c4cc5ccccc5oc4=O)cc3)nn2)cc1 [8m, 3-(4-((1-(4-Methoxybenzyl)-1H-1,2,3-triazol-4-yl)methoxy)phenyl)-2H-chromen-2-one]	–	26.6%	41 ± 1.4 µM	40.2%	–	–	–
COc1cccc2cc(-c3ccc(OCc4cn(Cc5ccccc5F)nn4)cc3)c(=O)oc12 [8o, 3-(4-((1-(2-Fluorobenzyl)-1H-1,2,3-triazol-4-yl)methoxy)phenyl)-8-methoxy-2H-chromen-2-one]	–	4.0%	14.2 ± 0.4 µM	8.0%	–	–	–
COc1cccc2cc(-c3ccc(OCc4cn(Cc5cccc(F)c5)nn4)cc3)c(=O)oc12 [8p, 3-(4-((1-(3-Fluorobenzyl)-1H-1,2,3-triazol-4-yl)methoxy)phenyl)-8-methoxy-2H-chromen-2-one]	–	29.8%	22.6 ± 0.8 µM	41.7%	–	–	–
COc1cccc2cc(-c3ccc(OCc4cn(Cc5ccc(F)cc5)nn4)cc3)c(=O)oc12 [8q, 3-(4-((1-(4-Fluorobenzyl)-1H-1,2,3-triazol-4-yl)methoxy)phenyl)-8-methoxy-2H-chromen-2-one]	18.9 ± 0.9 µM	38.1%	35 ± 1.3 µM	–	–	–	–
COc1cccc2cc(-c3ccc(OCc4cn(Cc5ccc(Cl)cc5)nn4)cc3)c(=O)oc12 [8r, 3-(4-((1-(4-Chlorobenzyl)-1H-1,2,3-triazol-4-yl)methoxy)phenyl)-8-methoxy-2H-chromen-2-one]	6.7 ± 0.4 µM	41.5%	> 100 µM	–	–	–	–
COc1cccc2cc(-c3ccc(OCc4cn(Cc5ccccc5[N+](=O)[O-])nn4)cc3)c(=O)oc12 [8s, 8-Methoxy-3-(4-((1-(2-nitrobenzyl)-1H-1,2,3-triazol-4-yl)methoxy)phenyl)-2H-chromen-2-one]	–	27.4%	–	42.5%	> 100 µM	–	–
O=c1oc2ccc(Br)cc2cc1-c1ccc(OCc2cn(Cc3ccc(Br)cc3)nn2)cc1 [8t, 6-Bromo-3-(4-((1-(4-bromobenzyl)-1H-1,2,3-triazol-4-yl)methoxy)phenyl)-2H-chromen-2-one]	–	15.1%	–	–	> 100 µM	–	–
O=c1oc2ccc(Br)cc2cc1-c1ccc(OCc2cn(Cc3ccccc3F)nn2)cc1 [8u, 6-Bromo-3-(4-((1-(2-fluorobenzyl)-1H-1,2,3-triazol-4-yl)methoxy)phenyl)-2H-chromen-2-one]	–	45.1%	–	46.6%	61.5 ± 1.9 µM	–	–
O=c1oc2ccc([N+](=O)[O-])cc2cc1-c1ccc(OCc2cn(Cc3ccccc3)nn2)cc1 [8v, 3-(4-((1-Benzyl-1H-1,2,3-triazol-4-yl)methoxy)phenyl)-6-nitro-2H-chromen-2-one]	6.3 ± 0.4 µM	48.3%	> 100 µM	–	–	–	–
O=c1oc2ccc([N+](=O)[O-])cc2cc1-c1ccc(OCc2cn(Cc3ccccc3F)nn2)cc1 [8w, 3-(4-((1-(2-Fluorobenzyl)-1H-1,2,3-triazol-4-yl)methoxy)phenyl)-6-nitro-2H-chromen-2-one]	–	16.6%	–	30.4%	> 100 µM	–	–
COc1cc2c(cc1OC)C(=O)C(CC1CCN(Cc3ccccc3)CC1)C2 (stereo not drawn) [Donepezil, donepezil, reference compound]	–	–	–	–	–	42.5 ± 0.3%	–
Nc1c2c(nc3ccccc13)CCCC2 [Tacrine, tacrine, reference compound]	–	–	–	–	–	–	67.3 ± 1.3%
